The structures appear in SMILES notation.

Data set [1] has as its system Hartley albino guinea pigs (spontaneous cartilage degeneration / osteoarthritis). The data set is described as follows: Guinea Pig Spontaneous Osteoarthritis Study. The class given is in vivo. The text has this:
Hartley albino guinea pigs undergo spontaneous cartilage degeneration, and they have been used as a convenient small animal model system to study osteoarthritis (OA) and have potential physiologic relevance to the OA that spontaneously develops in humans. Disease-related morphologic changes observed in the guinea pigs are similar to the histopathologic alternations in the joints of humans with OA. Other significant similarities between the OA in Hartley guinea pigs and that in humans are also known. Huebner, Collagenase 1 and Collagenase 3 Expression in a Guinea Pig Model of Osteoarthritis, 41 Arthritis Rheum. 877-890 no. 5(May 1998). The Hartley guinea pig spontaneous model can be used to study the effects of Arzoxifene on OA.
Hartley strain guinea pigs, approximately three month old males, are used for the study. (In one study, 5.5 month old males were used, as indicated by FIG. 8). The Hartley albino guinea pigs are provided ad lib access to food (Ca 1.1%, p 0.6%, Vitamin D 3400 IU/kg) and water. The guinea pigs are dosed subcutaneously with Arzoxifene at 0.03, 0.1, 0.3, and/or 0.5 mg/kg/d for about two to four months. The study generally includes 15 guinea pigs per treatment group, except for the baseline, which generally includes 10 guinea pigs. Urine and serum are to be collected at 0, 2, 4, 6, 12, and 16 weeks for biomarker evaluation. The right knee joints are harvested for histology and the left knee joint for surface osteoarthritis scoring.
The effects observed on OA lesion areas by quantitative image analyses are illustrated by the graph in FIG. 3. The Zones of the lesion in the knee joint are illustrated by FIG. 1. Osteoarthritis changes are further evaluated by histologically quantitative analyses on paraffin embedded sections. The severities of joint damage are assessed for the depth of chondrocyte lesion and loss of proteoglycan on a score 0-5 for increasing severity on each third of the cartilage surface (Animla molde of osteoarthritis, A. M. Bendele (J Musculoskel Neuron Interact 2001: 1: 363-376)). Osteophyte development also evaluated by measuring the size.

Data set [2] has as its system ovariectomized Sprague-Dawley rats. The experiment in a line: Intermittent Dosing Analysis of Arzoxifene in Ovariectomized Rats (Prevention Model), femur QCT. The class given is in vivo, rat. The settings on record: Ovx rats, 1 mg/kg oral. As to the method: Arzoxifene will be administered using several different dosing intervals for 5 weeks to 6 month-old rats, one week after ovariectomy.
Live phase: A total of about 78 female Sprague-Dawley rats (Harlan Sprague Dawley Inc) are used for this study design. 72 of the rats are ovariectomized (Ovx) at 6 months of age and 6 rats are used as sham-ovariectomized controls. Rats were maintained on a 12 hour light/dark cycle at 22° C. with ad lib access to food (TD 89222 with 0.5% Ca and 0.4% P, Teklad, Madison, Wis.) and water. Sham and Ovx controls are orally administered a vehicle of 20% hydroxy propyl-β-cyclodextrin (Aldrich Chemical Co). Arzoxifene (1 mg/kg) treated rats are dosed daily, every other day (QOD), every third day (Q3D), weekly on Monday (QW), or twice a week on Monday and Friday (M/F), as indicated. Each group contains 6 animals/grp and the treatment duration is about 5 weeks.
Analyses: Intact femora are removed and cleaned of soft-tissue and preserved in 50% ethanol/saline at 4° C. Femora are centered with respect to the QCT gantry (Research M, Stratec). A coronal scout scan of the specimen is generated first in 2 Dimension (2D) and then femora are scanned to measure bone mineral density (BMD, mg/cc), bone mineral content (BMC, mg), and cross-sectional area (mm2).

Data set [3] has as its system postmenopausal women with osteopenia. The experiment in a line: OA biomarkers on a subset of samples from the Phase 2 osteopenia study. The class given is in vivo, human. Conditions: no selection for OA. The method, then:
A Phase 2, multicenter, randomized, double-blind, placebo- and raloxifene-controlled study of arzoxifene enrolled 219 postmenopausal women with osteopenia (defined as bone mineral density [BMD] t-score at the lumbar spine and/or femoral neck >−2.5 and ≦−1). The study assessed the effects of arzoxifene compared with raloxifene HCl (60 mg/day) and placebo on biochemical markers of bone metabolism, cardiovascular disease risk markers, and on overall safety.
CTXII was not evaluated as the assay is validated for urine specimens, which were not available.

The nature of data set [4]: Half life of arzoxifene in human patients. In kind it is in vivo.
The nature of data set [5]: Half life of arzoxifene in laboratory animals. The class given is in vivo.

Take `COc1ccc(-c2sc3cc(O)ccc3c2Oc2ccc(OCCN3CCCCC3)cc2)cc1` [arzoxifene]: the “OA progression based on OA surface area and osteophyte development” value in data set [1] (0.5 mg/kg/d subcutaneous, one study (FIG. 8, 5.5 month old males)) is given as “did not have a statistical effect on OA progression”. Besides, the “effect on preventing or slowing the progression of OA” value in data set [1] (Hartley guinea pigs, subcutaneous, about two to four months, OA lesion areas by image analysis (FIG. 3)) was “positive effect on preventing or slowing the progression of OA”. Besides, the “OA progress: OA surface area and osteophyte development” value in data set [1] (lower doses tested (0.03, 0.1, 0.3 mg/kg/d subcutaneous), FIGS. 4-7) is reported as “favorable effect on preventing or delaying the OA progress”. The “loss of BMD, distal femur metaphysis by QCT” value in data set [2] (daily, about 5 weeks (FIG. 9)) is listed as “prevented”; in data set [2] (every other day (QOD), about 5 weeks (FIG. 9)) it was “prevented”; in data set [2] (every third day (Q3D), about 5 weeks (FIG. 9)), “prevented”; in data set [2] (twice a week Monday and Friday (M/F), about 5 weeks (FIG. 9)), “prevented”; in data set [2] (weekly on Monday (QW), about 5 weeks, QW BMD intermediate between Ovx and Sham and less than Sham (FIG. 9)), “only partially efficacious”. Besides, the “COMP biomarker difference between placebo and arzoxifene” value in data set [3] is reported as “modest but significant biomarker differences”. Moreover, in data set [3], the “human cartilage glycoprotein-39 (YKL-40) biomarker difference between placebo and arzoxifene” value is “modest but significant biomarker differences”. For the same compound, the half life entry in data set [4] is listed as “longer than one day”; in data set [5], “consistent with a daily dosing regimen”.

The values are drawn from patent publication US20070249677A1, “Treatment of Osteoarthritis and Dosing Regimen for Arzoxifene” (priority 2004, published 2007).
